These results are taken from PMC6934184, “Selective DNA-PKcs inhibition extends the therapeutic index of localized radiotherapy and chemotherapy” (The Journal of Clinical Investigation, 2019).

The structures appear in SMILES notation.

In this assay the target is T1, PDGFRA T674I (Homo sapiens, UniProt P16234, T674I).
T1 construct: purchased Thermo Fisher Scientific (Life Technologies) SelectScreen
In words: SelectScreen Z'LYTE. In kind it is biochemical. Summed up: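 Percent values come from Thermo SelectScreen profiling of NU5455, combining activity and binding assays. CSF1R was run in Z'LYTE format at Km app ATP, and CAMK1 in Adapta format with ATP listed at 10.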

T1 sequence (P16234 24-1089 T674I): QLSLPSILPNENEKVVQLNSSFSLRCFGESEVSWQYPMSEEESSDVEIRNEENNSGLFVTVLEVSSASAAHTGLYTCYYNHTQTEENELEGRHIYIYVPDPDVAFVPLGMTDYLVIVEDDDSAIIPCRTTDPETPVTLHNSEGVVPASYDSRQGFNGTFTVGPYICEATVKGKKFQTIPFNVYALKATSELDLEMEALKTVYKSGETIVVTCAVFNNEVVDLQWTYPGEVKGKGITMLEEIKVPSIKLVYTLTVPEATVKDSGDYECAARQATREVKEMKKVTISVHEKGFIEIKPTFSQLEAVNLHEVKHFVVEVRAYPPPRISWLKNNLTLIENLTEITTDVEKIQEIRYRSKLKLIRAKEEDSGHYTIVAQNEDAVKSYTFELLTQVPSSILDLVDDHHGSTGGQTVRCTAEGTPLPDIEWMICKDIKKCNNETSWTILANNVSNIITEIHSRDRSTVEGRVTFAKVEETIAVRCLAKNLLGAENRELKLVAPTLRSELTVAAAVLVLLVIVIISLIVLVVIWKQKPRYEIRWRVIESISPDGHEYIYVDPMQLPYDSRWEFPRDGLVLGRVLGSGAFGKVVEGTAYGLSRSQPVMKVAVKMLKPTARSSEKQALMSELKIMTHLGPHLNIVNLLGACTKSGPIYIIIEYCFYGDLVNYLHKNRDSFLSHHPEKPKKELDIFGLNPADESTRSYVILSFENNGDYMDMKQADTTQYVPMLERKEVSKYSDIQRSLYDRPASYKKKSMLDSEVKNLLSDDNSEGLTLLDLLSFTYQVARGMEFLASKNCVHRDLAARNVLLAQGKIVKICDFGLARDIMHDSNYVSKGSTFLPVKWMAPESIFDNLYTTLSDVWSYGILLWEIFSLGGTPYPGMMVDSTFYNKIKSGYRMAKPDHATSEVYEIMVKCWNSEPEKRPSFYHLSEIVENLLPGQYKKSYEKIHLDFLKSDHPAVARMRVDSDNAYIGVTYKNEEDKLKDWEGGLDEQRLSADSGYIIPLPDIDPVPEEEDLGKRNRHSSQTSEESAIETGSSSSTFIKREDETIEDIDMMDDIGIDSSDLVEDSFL

Turning to `CN(C(=O)CN1CCOCC1)c1ccc2sc3c(-c4cccc5c(=O)cc(N6CC7CCC(C6)O7)oc45)cccc3c2c1` [NU5455], the inhibition (as a rule, the change of the read-out against control, counted positive when it falls) at 1 µM is -8.9%.
